Structures can show the parent of a compound that is named as a salt. Where two headings read alike, the source gives them in different places.
Columns and labels:
[1] = system: tetrabenazine-induced ptosis in mice; details: stated as known comparison; cited from earlier work
[2] = system: isolation-induced fighting in mice; assay: Isolated fighting mouse (IFM) test / isolated mouse aggression; assay type: in vivo; details: ip, 60 mg/kg intraperitoneally, read-out: IFM % protected
[3] = system: aggression induced in rats by destruction of the septal area; assay: Septal rat aggression; assay type: in vivo; details: for ED50: Rattus norvegicus, ip
Source text: (§1) Two models of aggression are used in the primary screening for neuroleptics, (1) isolation-induced fighting in mice (IFM), and (2) aggression induced in rats by destruction of the septal area (septal rat). Compounds are first submitted, however, to the neuropharmacological profile, a standard procedure (see, e.g., Samuel Irwin, Science, 136, 123 [1962]) employed in screening a compound to determine its usefulness as a central nervous system active compound. Those agents which cause depression over a wide dose range are then submitted to the first anti-aggression screen, the isolation-induced fighting mouse assay.
(§2) The compound of Example 6 was compared with chlorpromazine and chlordiazepoxide for its anti-aggressive activity. Three models of experimentally-induced aggression in rodents were studied (R. D. Sofia, Life Science, 8: 705, 1969).

[4] = system: mice trained to walk a rotating wooden rod; assay: Neurotoxicity (rotating rod / rotorod), mice; details: mouse, in vivo
Procedure: (§3) In the neurotoxicity test, the value (NTD50) is defined as the dose necessary to cause 50% of mice or rats trained to walk a rotating wooden rod (5 rpm) to fall at the time of peak effect, and is a measure of drug effects on motor function or central nervous system toxicity. The results set forth in Table III were obtained when the compound of Example 6 was tested against chlorpromazine and chlordiazepoxide.

[5] = Neurotoxicity (rotating rod / rotorod), mice; details: mouse, in vivo
Procedure: as §3

[6] = system: isolation-induced fighting in mice; assay: Isolated fighting mouse (IFM) test / isolated mouse aggression; assay type: in vivo; details: for protected test animals in the IFM test: dose not restated in this sentence; for responders at 30 mg/kg / ED50: Mus musculus, ip; for responders at 30 mg/kg: 30 mg/kg intraperitoneally, at least 40% protected = active
Procedure: *IFM - Isolated fighting mouse test at a dose of 30 mg/kg
intraperitoneally; those compounds which protected at least 40% of the
as §1, §2

[7] = system: hissing response elicited by hypothalamic stimulation in cats; assay: Evoked hypothalamic rage response - cats; assay type: in vivo, cat; details: 25 mg/kg orally for three days
Source text: The effect of the compound of Example 6 on the hissing response elicited by hypothalamic stimulation in cats was studied in an effort to determine if it had properties similar to that of chlordiazepoxide and other anti-anxiety-like agents. […] Cats with chronically implanted electrodes, stereotaxically placed in the perifornical region of the hypothalamus, were used in this study. Stimulation was accomplished in the unanesthetized, freely moving animal, and the threshold for the hissing response was determined with the following stimulus parameters: square wave stimulation of 150 Hz with a duration of 0.5 msec and voltage ranging from 5.4 to 30. The compound of Example 6 was administered orally in capsule form. Following administration, the stimulation threshold for the hiss response was determined at 1, 2, 4, 6 and 24 hours. If an effect was observed, the stimulation was carried out daily until the thresholds returned to control values. The compound of Example 6 was administered orally at a dose of 25 mg/kg for three days. […] It can be concluded that the compound of Example 6 has no effect on hypothalamic excitability in cats and in this respect differs markedly from chlordiazepoxide.

[8] = system: dihydroxyphenylalanine-induced fighting behavior in mice; assay: Dihydroxyphenylalanine (DOPA) fighting test; assay type: in vivo, mouse; details: for excitation, salivation, jumping, and fighting with d1-DOPA: 200 mg/kg d1-DOPA, pargyline 80 mg/kg, Example 6 100 mg/kg, chlorpromazine 5 mg/kg, chlordiazepoxide 15 mg/kg
Procedure: It is well known that when monoamine oxidase inhibitors are administered prior to the administration of d1-DOPA, which is a noradrenaline precursor, convulsions or excitation occur. In this study, the MAO inhibitor pargyline (80 mg/kg) was given 1, 2 and 4 hours prior to administering 200 mg/kg of d1-DOPA. […] Thus, in this procedure, none of the agents tested appears to be a MAO inhibitor.

[9] = 5 day lethality, mice; details: mouse, in vivo
Source text: (§4) Table VIII gives the results of 5 day lethality studies following single injections of drug. All values presented represent tests conducted when animals were housed 10 per cage. The compound of Example 6 was compared with chlorpromazine and chlordiazepoxide. In these and all the preceding calculations, the method of Litchfield and Wilcoxon (J. Pharmacol. Exptl. Ther., 96: 99, 1949) was used to estimate effective (ED50) or lethal (LD50) dose.

[10] = system: electroshock-induced fighting in mice; assay: Electroshock-induced fighting in mice; assay type: in vivo, mouse; details: for ED50: Mus musculus, ip, read-out: ED50 (95% Confidence Limits), Electroshock-Induced Fighting in Mice
Source text: as §2

[11] = system: mice; assay: Neuropharmacological profile; assay type: in vivo, mouse
Source text: as §1
The compound of Example 6 was studied in the neuropharmacological profile, which, as indicated above, is a standardized multi-dimensional observation technique used on mice to grade symptomatology and acute toxicity relative to dosage.

[12] = system: d-amphetamine aggregation-induced lethality; assay: d-Amphetamine aggregation; assay type: in vivo; details: inactive at: Example 6 200 mg/kg, chlordiazepoxide 50 mg/kg
Procedure: Protection from d-amphetamine aggregation-induced lethality is usually afforded by alpha-adrenergic-blocking agents such as chlorpromazine, phenoxybenzamine, etc. Percent protection was determined and an ED50 value was calculated.

[13] = system: pentylenetetrazol seizures in mice; assay: Pentylenetetrazol seizures; assay type: in vivo, mouse; details: for MET50: I.P., mice, inactive at: Example 6 200 mg/kg, chlorpromazine 100 mg/kg; for ED50: Mus musculus, ip, 1 h
Procedure: In this test (modification of the method introduced by Everett and Richard, J. Pharmacol. Exptl. Ther., 81: 402, 1944), groups of ten mice each are pretreated i.p. with vehicle and various doses of the compound of Example 6 and placed in Plexiglas squares. Thirty minutes later, all mice are injected subcutaneously (s.c.) with pentylenetetrazol at 125 mg/kg and observed immediately thereafter for convulsions and death for a period of 1 hour.

[14] = system: maximal electroshock seizures in mice; assay: Maximal electroshock seizures; assay type: in vivo, mouse; details: for MES50: I.P., mice, inactive at: Example 6 200 mg/kg, chlorpromazine 25 mg/kg
Procedure: Groups of ten mice each were injected i.p. with a vehicle and the compound of Example 6 and placed in individual Plexiglas squares. Thirty minutes after i.p. injection, each mouse was administered an electric shock transcorneally at 50mA intensity, 0.2 seconds duration (Swinyard, et al, J. Pharmacol. Exptl. Ther., 106: 319, 1952). The criterion for activity is protection against tonic extension of the hind limbs. The dose necessary to protect 50% of the mice (MES50) was determined.

[15] = Neurotoxicity (rotating rod / rotorod), rats; details: rat, in vivo, ip
Procedure: as §3

[16] = 5 day lethality, rats; details: rat, in vivo, ip
Source text: as §4

[17] = system: tetrabenazine-induced ptosis in mice; assay: Antagonism of tetrabenazine-induced ptosis; assay type: in vivo, mouse; details: 200 mg/kg, 30 minutes before tetrabenazine 32 mg/kg intraperitoneally
Procedure: Groups of mice were given 32 mg/kg of tetrabenazine intraperitoneally 30 minutes after an injection of the compound of Example 6 (200 mg/kg). The degree of ptosis (eyelid drooping or closure) was then determined exactly 30 minutes after tetrabenazine administration.

[18] = system: spontaneous locomotor activity in rats; assay: Spontaneous locomotor activity; assay type: in vivo; details: Rattus norvegicus, ip, 0.5 h, read-out: SD50 (dose causing 50% reduction from control activity)
[19] = system: hissing response elicited by hypothalamic stimulation in cats; details: Baxter, Life Sciences, 3: 531, 1964, cited from earlier work
[20] = i.p. administration, read-out: ED50 (95% Confidence Limits), Septal Rat Aggression
[21] = ip, I.P., mice, 95% confidence limits, read-out: NTD50
[22] = i.p. administration, read-out: ED50 (95% Confidence Limits), Isolated Mouse Aggression
[23] = ip, Mice, I.P., 5 day, 10 per cage, read-out: LD50 (95% Confidence Limits)
[24] = po, Mice, P.O., 5 day, 10 per cage, read-out: LD50 (95% Confidence Limits)
[25] = I.P., rats, 95% confidence limits, read-out: NTD50
[26] = Rats, I.P., 5 day, 10 per cage, read-out: LD50 (95% Confidence Limits)

## CNCCCN1c2ccccc2CCc2ccccc21 [desipramine]
[1]
  reversal of tetrabenazine-induced ptosis by anti-depressants: reverse tetrabenazine-induced ptosis

## Cc1nc(NN=Nc2ccccc2C(=O)NCCCN(C)C)sc1C(=O)NCc1ccccc1 [Example 7, N-(3-dimethylaminopropyl)-2-[3-(4-methyl-5-(N-benzylcarbamoyl)-2-thiazolyl)-2(or 1)-triazeno]-benzamide (2:1) sulfate salt]
[2]
  responders at 60 mg/kg: 100%
[3]; 6.25 mg/kg i.p.
  septal rat aggression, protection: 100%
[3]; 12.5 mg/kg i.p.
  septal rat aggression, protection: 100%
[3]; indicated by 100% protection at 6.25 mg/kg, read-out: ED50, septal rat aggression
  ED50: < 6.25 mg/kg
[4]
  depression: do not cause depression
[5]
  TD50: > 100 mg/kg
[6]
  protected test animals in the IFM test: 100%

## Cc1nc(NN=Nc2ccccc2C(N)=O)sc1C(=O)NCc1ccccc1 [Example 6, 2-[3-(4-methyl-5-(N-benzyl-carbamoyl)-2-thiazolyl)-2(or 1)-triazeno]-benzamide]
[7]
  decrease of the threshold for the rage response: not observed during the experiments
  delay from stimulus to response: not changed
  rage response, intensity or character: not changed in intensity or character
[7]; 25 mg/kg
  effect on hypothalamic stimulation (threshold): no effect on hypothalamic stimulation
[3]; [20]
  ED50: ~4.5 mg/kg
[3]; i.p. administration
  NTD50/ED50, Septal Rat Aggression: 111.0
[3]; septal rat
  selectivity in inhibition of septal rat aggression versus chlordiazepoxide: 185 times
[8]
  excitation, salivation, jumping, and fighting with d1-DOPA: these symptoms were not observed
[8]; mice
  potentiation of dihydroxyphenylalanine-induced fighting behavior in mice: failed to (1) potentiate dihydroxyphenylalanine-induced fighting behavior in mice
[9]; ip
  LD50 at 120 h: > 1280 mg/kg
[9]; po
  LD50 at 120 h: > 800 mg/kg
[5]; [21]
  TD50: > 1280 mg/kg
[10]; i.p. administration
  ED50: 96 mg/kg
  NTD50/ED50, Electroshock-Induced Fighting in Mice: 13.3
[11]; 30, 100, 300 mg/kg, mice
  deaths in neuropharmacological profile: No deaths occurred
[11]; mouse, in vivo
  central nervous system depressant action, profile result: very weak central nervous system depressant
[12]
  ED50, d-amphetamine aggregation: Inactive
[13]
  MET50: Inactive
[6]
  responders at 30 mg/kg: 100%
[6]; [22]
  ED50: 1.8 mg/kg
[6]; i.p. administration
  NTD50/ED50, Isolated Mouse Aggression: 710
[14]
  MES50: Inactive
[15]
  TD50: ~500 mg/kg
[16]
  LD50 at 120 h: > 1400 mg/kg
[17]
  reversal of tetrabenazine-induced ptosis: did not reverse tetrabenazine-induced ptosis
[18]; I.P., rats, 30 minutes after administration, 30 minute activity count
  ED50: ~500 mg/kg

## CN(C)CCCN1c2ccccc2Sc2ccc(Cl)cc21 [Chlorpromazine, chlorpromazine]
[3]; [20]
  ED50: 10.7 mg/kg
[3]; i.p. administration
  NTD50/ED50, Septal Rat Aggression: 0.5
[8]
  excitation, salivation, jumping, and fighting with d1-DOPA: these symptoms were not observed
[9]; [23]
  LD50 at 120 h: 136 mg/kg
[9]; [24]
  LD50 at 120 h: 280 mg/kg
[5]; [21]
  TD50: 0.7 mg/kg
[10]
  ED50: 5.5 mg/kg
[10]; i.p. administration
  NTD50/ED50, Electroshock-Induced Fighting in Mice: 0.1
[12]
  ED50: 1.2 mg/kg
[13]
  MET50: Inactive
[6]; [22]
  ED50: 2.8 mg/kg
[6]; i.p. administration
  NTD50/ED50, Isolated Mouse Aggression: 0.3
[14]
  MES50: Inactive
[15]; [25]
  TD50: 5.3 mg/kg
[16]; [26]
  LD50 at 120 h: 138 mg/kg
[18]
  ED50: 1.7 mg/kg

## CN(C)CCC=C1c2ccccc2CCc2ccccc21 [amitriptyline]
[1]
  reversal of tetrabenazine-induced ptosis by anti-depressants: reverse tetrabenazine-induced ptosis

## CNC1=Nc2ccc(Cl)cc2C(c2ccccc2)=[N+]([O-])C1 [Chlordiazepoxide, chlordiazepoxide]
[3]; read-out: ED50 (95% Confidence Limits), Septal Rat Aggression
  ED50: 25.8 mg/kg
[3]; i.p. administration
  NTD50/ED50, Septal Rat Aggression: 0.6
[8]
  excitation, salivation, jumping, and fighting with d1-DOPA: these symptoms were not observed
[9]; [23]
  LD50 at 120 h: 400 mg/kg
[9]; [24]
  LD50 at 120 h: 810 mg/kg
[5]; [21]
  TD50: 13.8 mg/kg
[10]
  ED50: 4.2 mg/kg
[10]; i.p. administration
  NTD50/ED50, Electroshock-Induced Fighting in Mice: 3.3
[12]
  ED50, d-amphetamine aggregation: Inactive
[13]; read-out: MET50, convulsions
  ED50: 7.1 mg/kg
[13]; read-out: MET50, death
  ED50: 2.6 mg/kg
[6]; read-out: ED50 (95% Confidence Limits), Isolated Mouse Aggression
  ED50: 20.5 mg/kg
[6]; i.p. administration
  NTD50/ED50, Isolated Mouse Aggression: 0.7
[14]; Mus musculus, ip, 0.5 h, read-out: MES50
  ED50: 14.3 mg/kg
[15]; [25]
  TD50: 4.3 mg/kg
[16]; [26]
  LD50 at 120 h: 265 mg/kg
[19]
  effect on hypothalamic threshold / rage response: increase the threshold of the hypothalamus to electrical stimulation
[19]; listed as chlordiazepoxide
  effect on hypothalamic threshold / rage response: specific in inhibiting this response

## Cc1ccc(NN=Nc2ccccc2C(N)=O)cc1Cl [Example 3, 2-[3-(3-chloro-4-methylphenyl)-1(or 2)-triazeno]-benzamide]
[4]
  depression: do not cause depression
[5]
  TD50: > 100 mg/kg
[6]
  responders at 30 mg/kg: 100%
  protected test animals in the IFM test: 100%
[6]; i.p. administration, read-out: ED50 (IFM)
  ED50: 9.1 mg/kg
